Results reported in the supplement of paper PMC10307832.

How the values were obtained:
Experiment in all cases: relative viability (nuclei count vs DMSO), 5 days (fraction); higher = more cells survive
Ruxolitinib + Foretinib = compound: N#CC[C@H](C1CCCC1)n1cc(-c2ncnc3[nH]ccc23)cn1 [Ruxolitinib] + COc1cc2c(Oc3ccc(NC(=O)C4(C(=O)Nc5ccc(F)cc5)CC4)cc3F)ccnc2cc1OCCCN1CCOCC1 [Foretinib] (partner 0.25 µM)
In short: (§1)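 A single step with final 0.05% Triton X-100, 1% formaldehyde and 1 ug/ml Hoechst fixed the cells and stained nuclei 5 days after treatment. Lung cancer cell lines in 1536-well plates had been treated by pin tool the day after seeding with one drug alone or a fixed anchor-drug dose plus five library-drug doses (not always all listed) in √10 steps, and nuclei were counted on 4× images. Relative viability is the ratio of nuclei in treated wells to nuclei in vehicle wells, taken as the median of duplicate plates.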

Ruxolitinib + Lapatinib = compound: N#CC[C@H](C1CCCC1)n1cc(-c2ncnc3[nH]ccc23)cn1 [Ruxolitinib] + CS(=O)(=O)CCNCc1ccc(-c2ccc3ncnc(Nc4ccc(OCc5cccc(F)c5)c(Cl)c4)c3c2)o1 [Lapatinib] (partner 2 µM)
In short: as §1

Ruxolitinib + Crizotinib = compound: N#CC[C@H](C1CCCC1)n1cc(-c2ncnc3[nH]ccc23)cn1 [Ruxolitinib] + C[C@@H](Oc1cc(-c2cnn(C3CCNCC3)c2)cnc1N)c1c(Cl)ccc(F)c1Cl [Crizotinib] (partner 1 µM)
In short: as §1

Vismodegib + Bortezomib = compound: CS(=O)(=O)c1ccc(C(=O)Nc2ccc(Cl)c(-c3ccccn3)c2)c(Cl)c1 [Vismodegib] + CC(C)C[C@H](NC(=O)[C@H](Cc1ccccc1)NC(=O)c1cnccn1)B(O)O [Bortezomib] (partner 0.002 µM)
In short: as §1

Cell Line | relative viability (Ruxolitinib + Foretinib; first compound 0.253 µM) | relative viability (Ruxolitinib + Foretinib; first compound 0.8 µM) | relative viability (Ruxolitinib + Foretinib; first compound 2.53 µM) | relative viability (Ruxolitinib + Foretinib; first compound 8 µM) | relative viability (Ruxolitinib + Lapatinib; first compound 0.08 µM) | relative viability (Ruxolitinib + Lapatinib; first compound 0.253 µM) | relative viability (Ruxolitinib + Lapatinib; first compound 0.8 µM) | relative viability (Ruxolitinib + Lapatinib; first compound 2.53 µM) | relative viability (Ruxolitinib + Lapatinib; first compound 8 µM) | relative viability (Ruxolitinib + Crizotinib; first compound 0.08 µM) | relative viability (Ruxolitinib + Crizotinib; first compound 0.253 µM) | relative viability (Ruxolitinib + Crizotinib; first compound 0.8 µM) | relative viability (Ruxolitinib + Crizotinib; first compound 2.53 µM) | relative viability (Ruxolitinib + Crizotinib; first compound 8 µM) | relative viability (Vismodegib + Bortezomib; first compound 0.08 µM) | relative viability (Vismodegib + Bortezomib; first compound 0.253 µM) | relative viability (Vismodegib + Bortezomib; first compound 0.8 µM) | relative viability (Vismodegib + Bortezomib; first compound 2.53 µM) | relative viability (Vismodegib + Bortezomib; first compound 8 µM) | relative viability (Ruxolitinib + Foretinib; first compound 0.08 µM)
LOU-NH91 | 0.968 | 1.02 | 0.877 | 0.876 | 0.786 | 0.666 | 0.844 | 0.764 | 0.865 | 0.626 | 0.723 | 0.788 | 0.707 | 0.704 | 0.507 | 0.537 | 0.471 | 0.389 | 0.498 | –
NCI-H1975 | 0.933 | 0.995 | 0.956 | 0.603 | 0.952 | 0.955 | 0.831 | 0.71 | 0.858 | 1.07 | 1.01 | 1.05 | 0.858 | 0.547 | 0.381 | 0.396 | 0.374 | 0.373 | 0.398 | 1.04
NCI-H727 | 0.976 | 1.3 | 0.873 | 1.03 | 0.904 | 1.03 | 1.09 | 0.777 | 0.821 | 0.93 | 0.799 | 1.1 | 0.832 | 0.962 | 0.876 | 0.835 | 0.905 | 0.939 | 0.77 | 1.21
CAL-12T | 1.15 | 1.17 | 0.899 | 0.777 | – | 0.643 | 0.88 | 0.697 | 0.623 | 0.914 | 0.586 | 0.81 | 0.481 | 0.576 | – | 0.882 | 0.91 | 0.935 | 0.999 | 1.19
RERF-LC-KJ | 0.95 | 0.914 | 0.921 | 0.927 | 0.926 | 0.859 | 0.898 | 0.909 | 0.855 | 0.863 | 0.868 | 0.864 | 0.827 | 0.687 | 1.06 | 1.07 | 1.18 | 1.15 | 1.02 | 0.862
NCI-H838 | 0.994 | 0.907 | 0.572 | 0.453 | 1 | 0.803 | 0.873 | 0.446 | 0.406 | 0.751 | 0.723 | 0.682 | 0.591 | 0.342 | 0.603 | 1.11 | 0.679 | 0.817 | 1.05 | 1.06
